Measured values reported in US20180344854A1, “SUPERSATURATED COMPOSITIONS OF BENZIMIDAZOLE COMPOUNDS” (Faes Farma, S.A., priority 2015, published 2018).
Values after ≈ are worked out from the molar mass of the structure shown.

Columns and labels:
Assay type in all cases: physicochemical
[1] = Solubility of cocrystals in water at room temperature, HPLC area; conditions: for Solubility (HPLC area of bilastine), run _1 / Solubility (HPLC area of bilastine), run _2 / solubility on dissolution of cocrystal in water: water; for Solubility (HPLC area of bilastine), run _1 / Solubility (HPLC area of bilastine), run _2: rt; for pH_1 / pH_2: pH of the solution; for solubility on dissolution of cocrystal in water: room temperature, 400 mg in 24 ml
Description: 25 μL sample were injected.
Solubility of cocrystals was determined by stirring the product in water at room temperature (400 mg of product in 24 ml of water, 60 vol.). The product was previously milled in order to reduce the crystal size effect. A sample is collected and filtered using a sintered funnel (n° 3) periodically (30, 60, 180 min and after overnight). The filtered solid was immediately analyzed by XRPD, while the mother liquors are filtered through a 0.22 um filter. […] The concentration of Bilastine is determined by HPLC area (in some experiments where a high solubility was detected the mother liquor was diluted by a factor 10). This concentration is compared with the bilastine concentration obtained in the same conditions in order to determine a relative solubility.

[2] = Solubility of bilastine after heating the slurry with acid at 95° C. and cooling (Method 2), HPLC-PDA; conditions: for solubility after 24 h: pH 4.3, after 24 h; for solubility at 2 h: aqueous buffer, thermodynamic from solid, pH 4.3, 95° C. 2 h, filtrate stood overnight at room temperature
Description: Alternative Method for Determining the Solubility
HPLC-PDA analysis was carried out using a Acquity BEH C18 1.7 μm 100×2.1 mm column at a temperature of 40° C. The isocratic mobile phase was composed of acetonitrile/methanol/ammonium bicarbonate 10 mM pH 8.7 (20.2/24.8/55.0%) (% v/v), at a flow rate of 0.6 mL/min. Samples were centrifuged 10 minutes at 4000 rpm at 20° C., and supernatant diluted to approx. 20-40 μg/mL in water. These diluted samples were kept at 18° C. until analysis. Quantization was performed at 220 nm by area comparison against a calibration curve obtained with bilastine working standard.
Method 2. A slurry of bilastine (100 mg) and the organic carboxylic acid (amount needed to obtain a pH of 4.0-4.5) in water (10 ml) was prepared. The mixture was stirred at 95° C. for 2 h and filtered. The filtrate was cooled to room temperature and allowed to stand overnight.
(§1) Citric acid was added to a slurry of 100 mg of bilastine in 10 mL of water to get a pH of 4.3 and the mixture was heated at 95° C. for 2 h. Then the solid was filtered off and the filtrate was allowed to stand overnight at room temperature. The solid was separated by centrifugation and the concentration of bilastine was determined by HPLC-PDA.
as §1, with “D,L-Tartaric” for “Citric”
as §1, with “Hydrochloric” for “Citric”, “acid 3.7% v/v” for “acid”

[3] = Aqueous solubility of bilastine in the pH range 5-8; conditions: water, aqueous buffer
Description: The above benzimidazole compounds with selective H1 antihistaminic activity present low solubility in water, which impedes the development of pharmaceutically acceptable means of administering said compounds in liquid form. For example, the solubility of bilastine in the pH range 5-8 is around 500 μg/mL.

| Solubility (HPLC area of bilastine), run _1 ([1]; 0 min) [area counts] | Solubility (HPLC area of bilastine), run _2 ([1]; 0 min) [area counts] | Solubility (HPLC area of bilastine), run _1 ([1]; 30 min) [area counts] | Solubility (HPLC area of bilastine), run _2 ([1]; 30 min) [area counts] | Solubility (HPLC area of bilastine), run _1 ([1]; 60 min) [area counts] | Solubility (HPLC area of bilastine), run _2 ([1]; 60 min) [area counts] | Solubility (HPLC area of bilastine), run _1 ([1]; 180 min) [area counts] | Solubility (HPLC area of bilastine), run _2 ([1]; 180 min) [area counts] | Solubility (HPLC area of bilastine), run _1 ([1]; 1080 min) [area counts] | Solubility (HPLC area of bilastine), run _2 ([1]; 1080 min) [area counts] | pH_1 ([1]; run 1, 30 min) | pH_1 ([1]; run 1, 60 min) | pH_1 ([1]; run 1, 180 min) | pH_1 ([1]; run 1, 1080 min) | pH_2 ([1]; run 2, 30 min) | pH_2 ([1]; run 2, 60 min) | pH_2 ([1]; run 2, 180 min) | pH_2 ([1]; run 2, 1080 min) | solubility on dissolution of cocrystal in water [1] | Structure (SMILES) | further results |
| --- | --- | --- | --- | --- | --- | --- | --- | --- | --- | --- | --- | --- | --- | --- | --- | --- | --- | --- | --- | --- |
| 0 | 0 | 49106 | 48462 | 48363 | 48871 | 50828 | 50771 | 48315 | 47972 | 4.42 | 4.31 | 4.08 | 4.11 | 4.34 | 4.3 | 4.29 | 3.97 | 48000 area counts | CCOCCn1c(C2CCN(CCc3ccc(C(C)(C)C(=O)O)cc3)CC2)nc2ccccc21.CCOCCn1c(C2CCN(CCc3ccc(C(C)(C)C(=O)O)cc3)CC2)nc2ccccc21.O=C(O)CCCC(=O)O [GL(I)] | – |
| 0 | 0 | 61110 | 61019 | 61558 | 61328 | 60841 | 62159 | 48734 | 55535 | 4.25 | 4.22 | 4.06 | 4.00 | 4.25 | 4.22 | 4.11 | 3.98 | around 60000 area counts | CCOCCn1c(C2CCN(CCc3ccc(C(C)(C)C(=O)O)cc3)CC2)nc2ccccc21.CCOCCn1c(C2CCN(CCc3ccc(C(C)(C)C(=O)O)cc3)CC2)nc2ccccc21.O=C(O)CCCC(=O)O [GL(IV)] | – |
| 0 | 0 | 61517 | 62303 | 60930 | 60916 | 60628 | 61316 | 59755 | 60769 | 4.00 | 3.99 | 3.93 | 3.95 | 3.97 | 3.95 | 3.94 | 3.97 | 60000 area counts | CCOCCn1c(C2CCN(CCc3ccc(C(C)(C)C(=O)O)cc3)CC2)nc2ccccc21.O=C(O)CCCC(=O)O [GL(V)] | – |
| – | – | – | – | – | – | – | – | – | – | – | – | – | – | – | – | – | – | – | CCOCCn1c(C2CCN(CCc3ccc(C(C)(C)C(=O)O)cc3)CC2)nc2ccccc21 [bilastine, 2-[4-(2-{4-[1-(2-Ethoxyethyl)-1H-benzimidazol-2-yl]-1-piperidinyl}ethyl)phenyl]-2-methylpropanoic acid] | solubility after 24 h ([2]; citric acid): maintained; concentration of bilastine ([2]; hydrochloric acid (comparative), pH 4.3, compared with the pH-dependent solubility of FIG. 1): in accordance with its pH-dependent solubility; solubility after 24 h ([2]; tartaric acid): maintained; solubility at 2 h ([2]; water acidified with D,L-tartaric acid, D,L-tartaric acid): 2700 µg/mL (≈ 5.82 mM); solubility at 2 h ([2]; water acidified with citric acid, citric acid): 2700 µg/mL (≈ 5.82 mM); solubility [3]: ~500 µg/mL (≈ 1.08 mM) |
